According to patent US20260324636A1, “COMPOSITION FOR PROVIDING PLANT WITH STRESS RESISTANCE” (KIRIN HOLDINGS KABUSHIKI KAISHA, priority 2022, published 2026):

How the values were obtained:
[1] = system: H1ZAT12; test: H1ZAT12 gene expression by real-time PCR, Example 13; format: in vivo, hop; settings: 1 mM in medium, 20° C. for 2 hours, leaves; read-out: H1ZAT12 expression level, increase vs control
Excerpt: The materials as used in Example 4 were used.
The medium as used in Example 4 were used.
In order to design primers for the target genes necessary for gene expression analysis by real-time PCR, homologs of Arabidopsis thaliana oxidation stress-responsive genes in hop were searched for. The amino acid sequences of Arabidopsis thaliana ZAT10 (AGI code: AT1G27730) and ZAT12 (AGI code: AT5G59820) were obtained from TAIR (https://www.arabidopsis.org/), and the nucleotide sequences of the gene homologs were obtained using Hopbase (http:/hopbase.cgrb.oregonstate.edu/). […] As the reference gene, the nucleotide sequence of the homolog of Arabidopsis thaliana EF1α (AGI code: AT1G18070) was obtained. The hop homolog genes were designated as H1ZAT10, H1ZAT12, and HIEF1α, respectively.
The leaves in the first and the second nodes from the apical buds of the tissue-cultured seedlings were sampled 1.5 months after the initiation of subculture and inoculated into a liquid medium consisting of a ½ Murashige and Skoog Plant Salt Mixture and 2 (w/v) % glucose. Specifically, a liquid medium was dispensed at 5 ml/well to a 6-well microplate, and 5 hop leaves were mounted thereon. […]
Thereafter, the relative expression levels of the target genes upon N-acetylglutamic acid treatment were calculated by the ΔΔCt method.

[2] = system: ZAT12; test: ZAT12 gene expression by real-time PCR, Example 11; format: in vivo; settings: Arabidopsis thaliana; 0.4 mM, 22° C. for 2 hours; read-out: ZAT12 expression level, increase vs control
Protocol: The materials as used in Example 1 were used.
The medium as used in Example 1 was used.
To the Arabidopsis thaliana plants grown for 7 days in the same manner as in Example 1, 0.4 mM N-acetylglutamic acid or an equivalent amount of sterile water was added, and the plants were incubated at 22° C. for 2 hours. After incubation for 2 hours, the samples were frozen with liquid nitrogen, and RNA was extracted using the RNeasy Plant Mini Kit […].
cDNA that would be necessary as a real-time PCR template was synthesized from the RNA obtained. 1000 ng total RNA was used for each sample, and cDNA was synthesized using the Verso cDNA Synthesis Kit (Thermo Fischer Scientific). The synthesized cDNA was diluted to 5-fold with sterile distilled water and subjected to real-time PCR. For real-time PCR, a reaction solution containing ZAT10 (AGI code: AT1G27730) and ZAT12 (AGI code: AT5G59820) as the target genes, PP2AA3 (AGI code: AT1G13320) as the reference gene, and TB Green Ex Taq II (TakaRa) was prepared. PCR was performed with the use of the LightCycler® 480 System (Roche) with the number of amplification cycles of 50. The primers shown below were used.
Thereafter, the relative expression levels of the target genes upon N-acetylglutamic acid treatment were calculated by the ΔΔCt method using the Cp values obtained by real-time PCR.

CC(=O)N[C@@H](CCC(=O)O)C(=O)O [N-acetylglutamic acid]
fold induction at 1000 µM [1]: 1.9
fold induction at 400 µM [2]: 37
